Assays:
NCI-H358 = assay: Antiproliferative activity against human NCI-H358 cells harboring KRAS G12C mutant assessed as growth inhibition measured after 72 hrs by SRB assay; format: functional, cell-based
[1] = Inhibition of recombinant human N-terminal polyHis-tagged KRAS isoform 2B G12C mutant (Thr2 to Cys185 residues) expressed in Escherichia coli using GTP as substrate measured after 2 hrs by GTPase-glo assay
MIA PaCa-2 [2] = assay: Antiproliferative activity against human MIA PaCa-2 cells harboring KRAS G12C mutant assessed as growth inhibition at 1 uM measured after 72 hrs by CCK8 assay relative to control; format: functional; details: for inhibition of growth at 1 µM: Homo sapiens, MIA PaCa-2, read-out: GI
MIA PaCa-2 [3] = assay: Antiproliferative activity against human MIA PaCa-2 cells harboring KRAS G12C mutant assessed as growth inhibition measured after 72 hrs by CCK8 assay; format: functional, cell-based
MIA PaCa-2 [4] = assay: Antiproliferative activity against human MIA PaCa-2 cells harboring KRAS G12C mutant assessed as growth inhibition at 0.1 uM measured after 72 hrs by CCK8 assay relative to control; format: functional; details: for inhibition of growth at 0.1 µM: Homo sapiens, MIA PaCa-2, read-out: GI
NCI-H1975 = assay: Antiproliferative activity against human NCI-H1975 cells harboring wild-type KRAS assessed as growth inhibition measured after 72 hrs by SRB assay; format: functional, cell-based; details: NCI-H1975, 72 h
A549 [5] = assay: Antiproliferative activity against human A549 cells harboring KRAS G12S mutant assessed as growth inhibition at 0.1 uM measured after 72 hrs by SRB assay relative to control; format: functional; details: for inhibition of growth at 0.1 µM: Homo sapiens, A549, read-out: GI
A549 [6] = assay: Antiproliferative activity against human A549 cells harboring KRAS G12S mutant assessed as growth inhibition at 1 uM measured after 72 hrs by SRB assay relative to control; format: functional; details: for inhibition of growth at 1 µM: Homo sapiens, A549, read-out: GI
A549 [7] = assay: Antiproliferative activity against human A549 cells harboring KRAS G12S mutant assessed as growth inhibition measured after 72 hrs by SRB assay; format: functional, cell-based; details: A549, 72 h
A549 [8] = assay: Antiproliferative activity against human A549 cells harboring KRAS G12S mutant assessed as growth inhibition at 10 uM measured after 72 hrs by SRB assay relative to control; format: functional; details: for inhibition of growth at 10 µM: Homo sapiens, A549, read-out: GI
MIA PaCa-2 [9] = assay: Antiproliferative activity against human MIA PaCa-2 cells harboring KRAS G12C mutant assessed as growth inhibition at 10 uM measured after 72 hrs by CCK8 assay relative to control; format: functional; details: for inhibition of growth at 10 µM: Homo sapiens, MIA PaCa-2, read-out: GI
GTPase KRas = GTPase KRas (Homo sapiens, UniProt P01116); assay: Inhibition of recombinant human N-terminal His-tagged KRAS (2 to 185 residues) expressed in baculovirus infected Sf9 insect cells using GTP as substrate measured after 2 hrs by GTPase-glo assay
[10] = tested on: GTPase KRas (Homo sapiens), P01116 [G12C]; assay: Inhibition of KRAS G12C mutant in human NCI-H358 cells assessed as reduction in AKT phosphorylation measured after 6 hrs by Western blot analysis; format: cell-based; details: dose 10-1000 nM
[11] = tested on: GTPase KRas (Homo sapiens), P01116 [G12C]; assay: Inhibition of KRAS G12C mutant in human NCI-H358 cells assessed as reduction in ERK phosphorylation measured after 6 hrs by Western blot analysis; format: cell-based; details: dose 10-1000 nM
[12] = tested on: GTPase KRas (Homo sapiens), P01116 [G12C]; details: NCI-H358, dose 10-1000 nM, time 6.0 hrs

| IC50 [1] [nM] | IC50 (MIA PaCa-2 [3]; Homo sapiens, MIA PaCa-2, 72 h) [nM] | Structure (SMILES) | inhibition of growth at 1 µM (MIA PaCa-2 [2]) [%] | inhibition of growth at 0.1 µM (MIA PaCa-2 [4]) [%] | inhibition of growth at 0.1 µM (A549 [5]) [%] | inhibition of growth at 1 µM (A549 [6]) [%] | inhibition of growth at 10 µM (A549 [8]) [%] | inhibition of growth at 10 µM (MIA PaCa-2 [9]) [%] | other results |
| --- | --- | --- | --- | --- | --- | --- | --- | --- | --- |
| 1270 | 29 | C=CC(=O)N1CCN(c2nc(=O)n(-c3c(C)ccnc3C(C)C)c3nc(-c4c(O)cccc4F)c(F)cc23)[C@@H](C)C1 [SOTORASIB] | – | – | – | – | – | – | IC50 (NCI-H358; Homo sapiens, NCI-H358, 72 h): < 16 nM; growth inhibition (GI) (MIA PaCa-2 [2]): 64.63%; growth inhibition (GI) (MIA PaCa-2 [4]): 49.49%; IC50 (NCI-H1975): > 10000 nM; growth inhibition (GI) (A549 [5]): 4.13%; growth inhibition (GI) (A549 [6]): 5.81%; IC50 (A549 [7]): > 10000 nM; growth inhibition (GI) (A549 [8]): 24.09%; growth inhibition (GI) (MIA PaCa-2 [9]): 59.49% |
| – | > 10000 | C=CC(=O)N1CCN(c2nc(=O)n(-c3c(C)ccnc3C(C)C)c3nc4c(cc23)oc2ccc(C)cc24)[C@@H](C)C1 | 42.7 | 40.6 | 2.95 | 1.74 | 27.8 | 57.8 | – |
| 1810 | 430 | C=CC(=O)N1CCN(c2nc(=O)n(-c3c(C(C)C)ncnc3C(C)C)c3c(F)c(-c4c(O)cccc4F)ncc23)[C@@H](C)C1 | – | – | – | – | – | – | IC50 (NCI-H358; Homo sapiens, NCI-H358, 72 h): 260 nM; IC50 (GTPase KRas): > 10000 nM; IC50 (NCI-H1975): 8990 nM; IC50 (A549 [7]): 3270 nM |
| 1870 | – | C=CC(=O)N1CCN(c2nc(=O)n(-c3c(C)ccnc3C(C)C)c3c(F)c(-c4c(O)cccc4F)ncc23)[C@@H](C)C1 (stereo in doubt; 26a) [listing 1 of 2 here] | – | – | – | – | – | – | IC50 (NCI-H358; nci-h358): 260 nM; IC50 (MIA PaCa-2 [3]; mia paca-2): 530 nM; IC50 (GTPase KRas): > 10000 nM; IC50 (NCI-H1975): > 10000 nM; IC50 (A549 [7]): > 10000 nM |
| – | 7970 | C=CC(=O)N1CCN(c2nc(=O)n(-c3c(C)ccnc3C(C)C)c3nc4c(cc23)oc2cc(F)c(F)cc24)[C@@H](C)C1 | 6.35 | 32.3 | -5.33 | 7.03 | 21.1 | 75.2 | – |
| 3570 | – | C=CC(=O)N1CCN(c2nc(=O)n(-c3c(C)ccnc3C(C)C)c3c(F)c(-c4c(O)cccc4F)ncc23)[C@@H](C)C1 (stereo in doubt; 26ab) | – | – | – | – | – | – | IC50 (NCI-H358; nci-h358): 880 nM; IC50 (MIA PaCa-2 [3]; mia paca-2): 1500 nM; IC50 (GTPase KRas; sf9): > 10000 nM |
| > 10000 | – | C=CC(=O)N1CCN(c2nc(=O)n(-c3c(C(C)C)cccc3C(C)C)c3c(F)c(-c4c(O)cccc4F)ncc23)[C@@H](C)C1 | – | – | – | – | – | – | IC50 (GTPase KRas): > 10000 nM |
| 1790 | – | C=CC(=O)N1CCN(c2nc(=O)n(-c3c(C)ccnc3C(C)C)c3c(F)c(-c4c(O)cccc4F)ncc23)[C@@H](C)C1 (stereo in doubt; 26aa) | – | – | – | – | – | – | IC50 (NCI-H358; nci-h358): 300 nM; IC50 (MIA PaCa-2 [3]; mia paca-2): 600 nM; IC50 (GTPase KRas; sf9): > 10000 nM |
| 2400 | 2700 | C=CC(=O)N1CCN(c2nc(=O)n(-c3c(C)ccnc3C(C)C)c3c(Cl)c(-c4c(O)cccc4F)ncc23)[C@@H](C)C1 | – | – | – | – | – | – | IC50 (NCI-H358; Homo sapiens, NCI-H358, 72 h): 1210 nM; IC50 (GTPase KRas): > 10000 nM; IC50 (NCI-H1975): > 10000 nM; IC50 (A549 [7]): > 10000 nM |
| – | > 10000 | C=CC(=O)N1CCN(c2nc(=O)n(-c3c(C)ccnc3C(C)C)c3nc4c(cc23)oc2ccc(F)cc24)[C@@H](C)C1 | 35.4 | 15.9 | 2.52 | 6.97 | 24.6 | 52.8 | – |
| > 10000 | – | C=CC(=O)N1CCN(c2nc(=O)n(-c3c(C(C)C)ncnc3C(C)C)c3c(Cl)c(-c4c(O)cccc4F)ncc23)[C@@H](C)C1 | – | – | – | – | – | – | IC50 (GTPase KRas): > 10000 nM |

Second part, the molecule before the results:

| Structure (SMILES) | IC50 [1] [nM] | IC50 (MIA PaCa-2 [3]; Homo sapiens, MIA PaCa-2, 72 h) [nM] | inhibition of growth at 1 µM (MIA PaCa-2 [2]) [%] | inhibition of growth at 0.1 µM (MIA PaCa-2 [4]) [%] | inhibition of growth at 0.1 µM (A549 [5]) [%] | inhibition of growth at 1 µM (A549 [6]) [%] | inhibition of growth at 10 µM (A549 [8]) [%] | inhibition of growth at 10 µM (MIA PaCa-2 [9]) [%] | other results |
| --- | --- | --- | --- | --- | --- | --- | --- | --- | --- |
| CC#CC(=O)N1CCN(c2nc(=O)n(-c3c(C)ccnc3C(C)C)c3cc(-c4c(O)cccc4F)ncc23)[C@@H](C)C1 | – | – | 19.7 | 20.2 | 3.69 | 3.57 | 56.7 | 41.8 | – |
| C=CC(=O)N1CCN(c2nc(=O)n(-c3c(C)ccnc3C(C)C)c3nc(-c4c(O)cccc4F)ncc23)[C@@H](C)C1 | – | – | 8.56 | 5.39 | 5.83 | -5.05 | 23 | 49 | – |
| C=CC(=O)N1CCN(c2nc(=O)n(-c3c(C)ccnc3C(C)C)c3nc4c(cc23)oc2cccc(O)c24)[C@@H](C)C1 | – | – | 1.71 | 1.41 | 32.8 | 35.3 | 23.1 | 9.78 | – |
| C=CC(=O)N1CCN(c2ncnc3c(F)c(-c4c(O)cccc4F)c(Cl)cc23)CC1 | – | 1060 | 34.9 | 21 | 8.27 | 6.3 | 31.2 | 62.5 | – |
| C=CC(=O)N1CCN(c2nc(=O)n(-c3c(C)ccnc3C(C)C)c3nc4c(cc23)oc2cccc(F)c24)[C@@H](C)C1 | – | – | 19.3 | 35.3 | 7.06 | 2.22 | 28.6 | 48.7 | – |
| C=C(C(=O)N1CCN(c2nc(=O)n(-c3c(C)ccnc3C(C)C)c3cc(-c4c(O)cccc4F)ncc23)[C@@H](C)C1)C(F)(F)F | – | – | 18.1 | 6.23 | 2.29 | 6.65 | 91.6 | 85.5 | – |
| CC#CC(=O)N1CCN(c2nc(=O)n(-c3c(C)ccnc3C(C)C)c3nc4c(cc23)oc2cccc(F)c24)[C@@H](C)C1 | – | – | 14.2 | 0.49 | -1.01 | 4.36 | 22.3 | 27.3 | – |
| C=CC(=O)N1CCN(c2nc(=O)n(-c3c(C)ccnc3C(C)C)c3cc(-c4c(O)cccc4F)ncc23)[C@@H](C)C1 | – | – | 24.8 | 4.05 | 9.11 | 7.53 | 52.7 | 64.2 | – |
| C=CC(=O)N1CCN(c2nc(=O)n(-c3c(C)ccnc3C(C)C)c3c(F)c(-c4c(O)cccc4F)ncc23)[C@@H](C)C1 (stereo in doubt; 26a) [listing 2 of 2 here] | – | – | – | – | – | – | – | – | inhibition [10]: Dose-dependent effect; inhibition [11]: Dose-dependent effect; inhibition [12]: Dose-dependent effect |
| Cc1ccnc(C(C)C)c1-n1c(=O)nc(N2CCN(C(=O)/C=C/CN(C)C)C[C@@H]2C)c2cc3oc4cccc(F)c4c3nc21 | – | – | 14.9 | 1.88 | 7.85 | 2.99 | 2.64 | 32 | – |
| C=CC(=O)N1C2CCC1CN(c1nc(=O)n(-c3c(C)ccnc3C(C)C)c3nc4c(cc13)oc1cccc(F)c14)C2 | – | > 10000 | 14.5 | 8.58 | 4.85 | 9.32 | 35.7 | 53.2 | – |
| C=C(F)C(=O)N1CCN(c2nc(=O)n(-c3c(C)ccnc3C(C)C)c3cc(-c4c(O)cccc4F)ncc23)[C@@H](C)C1 | – | – | 29.2 | 25.1 | 5.24 | 5.95 | 19 | 35 | – |
